The source of these data is ChEMBL document CHEMBL1201862, “PubChem BioAssay data set” (2004).

Calls of active or inactive are those of the source.

Among the targets are Cytochrome P450 3A4 (Homo sapiens, UniProt P08684); Cytochrome P450 2D6 (Homo sapiens, UniProt P10635); Cytochrome P450 2C9 (Homo sapiens, UniProt P11712).
Series [1] concerns the target T1, Corticotropin-releasing factor receptor 2/Corticotropin-releasing factor-binding protein (Homo sapiens, UniProt P24387+Q13324).
T1 sequence (Q13324 whole entry): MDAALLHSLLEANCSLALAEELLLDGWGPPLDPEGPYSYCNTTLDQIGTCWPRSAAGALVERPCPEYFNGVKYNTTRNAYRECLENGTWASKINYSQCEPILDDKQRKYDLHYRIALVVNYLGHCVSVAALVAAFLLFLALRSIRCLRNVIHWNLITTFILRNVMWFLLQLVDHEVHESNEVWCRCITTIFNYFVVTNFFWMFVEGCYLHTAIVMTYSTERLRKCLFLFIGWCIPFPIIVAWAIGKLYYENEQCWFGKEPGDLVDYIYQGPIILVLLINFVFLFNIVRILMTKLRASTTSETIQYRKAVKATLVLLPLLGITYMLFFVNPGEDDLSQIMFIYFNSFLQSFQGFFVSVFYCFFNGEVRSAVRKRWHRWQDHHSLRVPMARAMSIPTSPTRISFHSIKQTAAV
T1 sequence (P24387 whole entry): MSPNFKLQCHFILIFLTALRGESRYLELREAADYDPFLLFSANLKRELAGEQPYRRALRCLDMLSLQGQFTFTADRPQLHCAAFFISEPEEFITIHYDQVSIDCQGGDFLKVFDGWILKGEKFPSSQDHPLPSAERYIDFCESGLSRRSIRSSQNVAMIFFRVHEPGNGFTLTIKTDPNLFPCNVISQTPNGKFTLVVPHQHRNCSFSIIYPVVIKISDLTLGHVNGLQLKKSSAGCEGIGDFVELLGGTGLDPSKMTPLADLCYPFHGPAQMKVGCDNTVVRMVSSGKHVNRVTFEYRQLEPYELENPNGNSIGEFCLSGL
The series is described as follows: activators of CRF receptor 2 with binding protein – uHTS hits, confirmation (AID 602473). In kind it is functional. To be noted: read-out: EC50_Mean.

Series [2] deals with T1, Corticotropin-releasing factor receptor 2/Corticotropin-releasing factor-binding protein. The series is described as follows: Dose Response confirmation of uHTS hits for small molecule antagonists of the CRF-binding protein and CRF-R2 receptor complex. As to conditions: read-out: IC50_Mean. It counts as functional.
The nature of series [3]: Luminescence Cell-Based Dose Confirmation HTS to Identify Inhibitors of Platelet Dense Granule Release. [Related pubchem assays: 1663 (Primary HTS), 1678 (Summary of Project)]. In kind it is functional.
The target in another series is T2, Cytochrome P450 1A2 (Homo sapiens, UniProt P05177).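 Note: PubChem cytochrome P450 panel assay, CYP1A2 panel member.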
T2 sequence (P05177 whole entry): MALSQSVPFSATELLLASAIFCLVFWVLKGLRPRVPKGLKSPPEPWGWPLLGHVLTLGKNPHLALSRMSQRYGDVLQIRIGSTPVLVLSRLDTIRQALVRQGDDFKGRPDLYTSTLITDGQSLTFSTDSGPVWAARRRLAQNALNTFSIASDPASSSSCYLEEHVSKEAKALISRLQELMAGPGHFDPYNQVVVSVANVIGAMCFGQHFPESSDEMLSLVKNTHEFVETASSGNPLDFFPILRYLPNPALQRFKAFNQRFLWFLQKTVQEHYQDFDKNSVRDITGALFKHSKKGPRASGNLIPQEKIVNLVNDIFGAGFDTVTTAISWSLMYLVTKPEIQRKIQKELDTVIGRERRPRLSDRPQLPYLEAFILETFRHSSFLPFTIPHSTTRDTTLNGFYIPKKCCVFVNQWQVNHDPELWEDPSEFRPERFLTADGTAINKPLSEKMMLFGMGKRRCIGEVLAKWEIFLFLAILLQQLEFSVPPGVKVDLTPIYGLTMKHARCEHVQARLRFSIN

The target in series [4] is Luciferin 4-monooxygenase (Photinus pyralis, UniProt P08659). The experiment in a line: firefly luciferase enzyme inhibitors, dose response, biochemical, luminescence (AID 1891).
Sequence of Luciferin 4-monooxygenase (P08659 whole entry): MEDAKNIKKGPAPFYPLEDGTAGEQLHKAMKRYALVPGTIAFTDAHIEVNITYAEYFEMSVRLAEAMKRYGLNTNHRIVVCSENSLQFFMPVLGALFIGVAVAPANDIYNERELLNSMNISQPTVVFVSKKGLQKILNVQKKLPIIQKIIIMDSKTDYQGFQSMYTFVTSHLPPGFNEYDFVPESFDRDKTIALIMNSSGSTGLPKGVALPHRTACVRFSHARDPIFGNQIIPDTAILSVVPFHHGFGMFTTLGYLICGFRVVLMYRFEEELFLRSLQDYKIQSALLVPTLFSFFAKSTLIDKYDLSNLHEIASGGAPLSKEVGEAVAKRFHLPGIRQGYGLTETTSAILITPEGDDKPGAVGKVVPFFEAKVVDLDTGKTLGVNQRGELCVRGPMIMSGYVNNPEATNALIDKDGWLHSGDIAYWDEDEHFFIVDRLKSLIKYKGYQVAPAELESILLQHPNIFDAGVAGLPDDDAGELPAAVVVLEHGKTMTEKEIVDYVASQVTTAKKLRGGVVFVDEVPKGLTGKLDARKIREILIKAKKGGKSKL
Another series deals with Cytochrome P450 2C19 (Homo sapiens, UniProt P33261). The experiment in a line: Cytochrome panel assay with activity outcomes. Panel member name: p450-cyp2c19 Compounds with AC50 equal or less than 10 uM are considered active. It counts as functional.
Sequence of Cytochrome P450 2C19 (P33261 whole entry): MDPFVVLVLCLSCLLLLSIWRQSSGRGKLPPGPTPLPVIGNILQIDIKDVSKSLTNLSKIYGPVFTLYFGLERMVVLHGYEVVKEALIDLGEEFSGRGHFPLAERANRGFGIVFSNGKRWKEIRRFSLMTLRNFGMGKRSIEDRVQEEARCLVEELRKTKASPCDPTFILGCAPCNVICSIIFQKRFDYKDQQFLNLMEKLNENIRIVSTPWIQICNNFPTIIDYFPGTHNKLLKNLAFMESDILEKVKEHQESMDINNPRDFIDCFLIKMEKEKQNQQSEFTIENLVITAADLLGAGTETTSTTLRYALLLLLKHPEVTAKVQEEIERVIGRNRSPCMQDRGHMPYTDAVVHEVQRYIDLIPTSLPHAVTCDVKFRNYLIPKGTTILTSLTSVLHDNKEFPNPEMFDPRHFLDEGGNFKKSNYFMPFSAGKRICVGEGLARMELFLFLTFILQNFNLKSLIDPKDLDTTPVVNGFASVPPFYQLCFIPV
A short description of the next series: cells. It counts as functional.
Series [5] addresses T3, Rac GTPase-activating protein 1 (Homo sapiens, UniProt Q9H0H5).
T3 sequence (Q9H0H5 whole entry): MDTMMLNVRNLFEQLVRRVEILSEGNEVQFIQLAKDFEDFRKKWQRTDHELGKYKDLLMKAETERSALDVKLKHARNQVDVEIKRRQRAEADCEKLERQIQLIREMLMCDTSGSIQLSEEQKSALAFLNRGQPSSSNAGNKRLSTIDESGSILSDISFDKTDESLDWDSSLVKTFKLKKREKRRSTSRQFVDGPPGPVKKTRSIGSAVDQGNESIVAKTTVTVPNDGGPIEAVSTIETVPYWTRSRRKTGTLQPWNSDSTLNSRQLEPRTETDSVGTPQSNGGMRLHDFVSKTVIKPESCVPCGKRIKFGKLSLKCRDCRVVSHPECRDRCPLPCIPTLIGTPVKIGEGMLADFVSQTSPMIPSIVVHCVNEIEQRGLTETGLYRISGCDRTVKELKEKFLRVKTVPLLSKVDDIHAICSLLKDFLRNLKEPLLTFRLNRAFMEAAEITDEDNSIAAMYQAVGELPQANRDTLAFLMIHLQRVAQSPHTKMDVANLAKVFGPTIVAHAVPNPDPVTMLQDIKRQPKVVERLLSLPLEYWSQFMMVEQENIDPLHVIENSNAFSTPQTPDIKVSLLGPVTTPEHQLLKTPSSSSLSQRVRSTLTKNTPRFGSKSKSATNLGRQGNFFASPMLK
The experiment in a line: MgcRacGAP GTPase-activating activity inhibitors, confirmation, biochemical, ADP Hunter fluorescence, primary and confirmatory (AID 624330). It counts as functional.

The next series deals with Paired box protein Pax-8 (Homo sapiens, UniProt Q06710). The series is described as follows: inhibitors of PAX8-driven TPO luciferase reporter, dose response, RMG-I cells, cherry-pick (AID 687027).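 Note: luciferase reporter driven by Pax8 target thyroperoxidase promoter measured by SteadyGlo luminescence.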 In kind it is functional, cell-based.
Sequence of Paired box protein Pax-8 (Q06710 whole entry): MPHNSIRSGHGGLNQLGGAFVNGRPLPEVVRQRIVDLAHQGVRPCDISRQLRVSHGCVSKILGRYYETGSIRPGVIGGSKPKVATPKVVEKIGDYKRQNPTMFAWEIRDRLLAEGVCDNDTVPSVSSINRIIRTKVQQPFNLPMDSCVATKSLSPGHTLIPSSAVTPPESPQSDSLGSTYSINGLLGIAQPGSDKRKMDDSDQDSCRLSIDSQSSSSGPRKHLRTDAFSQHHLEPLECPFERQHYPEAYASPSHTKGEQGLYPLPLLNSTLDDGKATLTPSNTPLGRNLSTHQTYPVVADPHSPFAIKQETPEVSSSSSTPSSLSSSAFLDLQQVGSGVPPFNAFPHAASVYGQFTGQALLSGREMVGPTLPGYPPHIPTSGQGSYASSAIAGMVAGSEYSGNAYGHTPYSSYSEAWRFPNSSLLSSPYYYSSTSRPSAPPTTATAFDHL
Series [6] concerns the target FAD-linked sulfhydryl oxidase ALR (Homo sapiens, UniProt P55789). The experiment in a line: inhibitors of human ALR sulfhydryl oxidase, dose response, biochemical, H2O2 detection, luminescence, cherry-pick (AID 493248).

Sequence of Cytochrome P450 2D6 (P10635 whole entry): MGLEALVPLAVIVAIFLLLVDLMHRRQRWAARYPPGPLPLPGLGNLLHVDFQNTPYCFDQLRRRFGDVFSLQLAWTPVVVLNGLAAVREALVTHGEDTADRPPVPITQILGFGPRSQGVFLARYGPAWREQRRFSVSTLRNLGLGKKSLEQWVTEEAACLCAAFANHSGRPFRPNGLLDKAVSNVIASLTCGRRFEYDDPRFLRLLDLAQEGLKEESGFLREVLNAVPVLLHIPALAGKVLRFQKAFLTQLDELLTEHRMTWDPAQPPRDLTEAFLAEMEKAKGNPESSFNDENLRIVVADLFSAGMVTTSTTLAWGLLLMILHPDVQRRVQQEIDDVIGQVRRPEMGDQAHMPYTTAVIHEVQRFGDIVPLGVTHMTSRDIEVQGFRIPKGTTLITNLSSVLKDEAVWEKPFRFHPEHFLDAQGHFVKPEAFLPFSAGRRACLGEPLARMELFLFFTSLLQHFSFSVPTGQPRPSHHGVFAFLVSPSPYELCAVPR
Sequence of Cytochrome P450 3A4 (P08684 whole entry): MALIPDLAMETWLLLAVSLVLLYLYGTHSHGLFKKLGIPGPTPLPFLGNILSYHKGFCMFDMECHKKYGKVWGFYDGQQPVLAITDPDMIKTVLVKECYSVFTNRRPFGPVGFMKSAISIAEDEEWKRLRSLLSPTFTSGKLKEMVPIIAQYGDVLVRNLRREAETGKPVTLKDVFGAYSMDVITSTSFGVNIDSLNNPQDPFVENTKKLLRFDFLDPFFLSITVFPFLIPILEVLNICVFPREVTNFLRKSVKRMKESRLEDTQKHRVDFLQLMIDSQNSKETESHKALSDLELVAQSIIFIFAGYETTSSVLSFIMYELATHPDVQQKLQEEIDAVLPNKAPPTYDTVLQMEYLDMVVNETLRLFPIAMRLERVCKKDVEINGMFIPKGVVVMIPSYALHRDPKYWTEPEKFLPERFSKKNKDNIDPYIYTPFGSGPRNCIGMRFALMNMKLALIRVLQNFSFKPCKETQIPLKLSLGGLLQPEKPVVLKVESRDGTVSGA
Sequence of Cytochrome P450 2C9 (P11712 whole entry): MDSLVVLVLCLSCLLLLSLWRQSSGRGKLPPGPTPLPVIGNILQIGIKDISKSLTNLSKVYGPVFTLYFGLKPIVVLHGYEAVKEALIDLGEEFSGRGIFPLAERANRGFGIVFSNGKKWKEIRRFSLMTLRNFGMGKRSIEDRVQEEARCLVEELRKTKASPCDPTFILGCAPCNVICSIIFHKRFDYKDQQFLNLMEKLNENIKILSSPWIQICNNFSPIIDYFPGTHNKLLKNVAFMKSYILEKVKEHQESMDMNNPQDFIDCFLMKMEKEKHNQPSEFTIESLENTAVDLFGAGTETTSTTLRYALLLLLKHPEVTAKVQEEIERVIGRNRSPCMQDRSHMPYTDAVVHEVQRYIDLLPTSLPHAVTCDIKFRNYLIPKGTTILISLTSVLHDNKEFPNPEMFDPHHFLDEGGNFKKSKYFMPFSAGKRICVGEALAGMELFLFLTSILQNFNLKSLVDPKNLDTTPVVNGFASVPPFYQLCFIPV
Sequence of FAD-linked sulfhydryl oxidase ALR (P55789 whole entry): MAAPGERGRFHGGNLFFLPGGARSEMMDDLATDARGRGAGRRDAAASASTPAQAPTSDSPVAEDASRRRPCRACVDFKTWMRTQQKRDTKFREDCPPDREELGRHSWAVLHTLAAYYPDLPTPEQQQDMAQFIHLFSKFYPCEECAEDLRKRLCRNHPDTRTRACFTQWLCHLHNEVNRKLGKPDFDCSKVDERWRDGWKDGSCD

For `O=C(NCN1CCCCC1)c1cnccn1`, the EC50 in series [1] was > 53 µM (inactive). In addition, in series [2], the IC50 was > 47.1 µM (inactive). Take `CC1CCC(NC(=O)c2ccc(CS(=O)(=O)Cc3ccccc3F)o2)CC1` (centres undefined): the EC50 in [3] and in series [4] was > 112 µM (not active) in each case. The AC50 at Cytochrome P450 3A4 was 14.1 µM (inconclusive); at Cytochrome P450 2D6, 35.5 µM (inconclusive); on Cytochrome P450 1A2, 0.251 µM (inconclusive); on Cytochrome P450 2C9, 17.8 µM (inconclusive). In the case of `N#C/C(=C\c1c[nH]c2ccccc12)c1nnc2n1CCCCC2`, the EC50 in series [3] and in series [4] was > 112 µM (not active) in each case. For `Cc1ccc(Oc2nc3ccccn3c(=O)c2/C=C(\C#N)C(=O)NC2CCS(=O)(=O)C2)c(C)c1` (centres undefined), the EC50 was 6.03 µM (active) in series [3] and > 112 µM (not active) in series [4]. As to `C[C@H](CN(C)C)C(O)(c1ccccc1)c1ccccc1`, the AC50 on Cytochrome P450 2D6 is 3.98 µM (inconclusive); on Cytochrome P450 2C19, “inconclusive”. As for `CCOC(=O)COc1cc([N+](=O)[O-])cc2cccnc12`, the IC50 in “cells” is 46.4 µM (active). Consider `N#Cc1ccc(NC(=O)COC(=O)CSc2nnc(-c3ccc(Cl)cc3)o2)cc1`, for which the EC50 in series [1] is > 53 µM (inactive). Moreover, in [2], the IC50 was > 47.1 µM (inactive). Turning to `CCOC(=O)C(CC)n1cnc2c(nnn2-c2ccc(F)cc2)c1=O` (centres undefined), the EC50 in series [3] and in [4] was > 112 µM (not active) in each case. For `CC12CCC(C(=O)NNc3ccccc3)(C(=O)C1=O)C2(C)C` (centres undefined), the EC50 in series [3] and in series [4] was > 112 µM (not active) in each case. As to `N/C(CSS(=O)(=O)O)=N\[C@@H]1C[C@H]2CC[C@@H]1C2`, the AC50 at Cytochrome P450 2D6 was 7.94 µM (inconclusive); on Cytochrome P450 1A2, 10 µM (inconclusive); on Cytochrome P450 2C9, 7.94 µM (inconclusive); at Cytochrome P450 2C19, “inconclusive”. `Cc1ccc(C)c(NC(=O)c2cc(S(=O)(=O)N3CCOCC3)cn2C)c1`: the EC50 in series [3] and in series [4] was > 112 µM (not active) throughout. As for `Cc1cccc(-n2c(SCC(=O)N3CC(=O)Nc4ccccc43)nc3ccccc3c2=O)c1C`, the EC50 in series [1] was > 53 µM (inactive). In addition, the IC50 in series [2] was > 47.1 µM (inactive). For the compound `COc1ccc(C(=O)COC(=O)CCNS(=O)(=O)c2ccc(NC(C)=O)cc2)c(OC)c1`, the EC50 in series [1] was > 53 µM (inactive). Moreover, in [2], the IC50 was > 47.1 µM (inactive). Turning to `CCN(CC)C(=O)c1c(C)nc2ccccn12`, in series [1], the EC50 is > 53 µM (inactive). In addition, in [2], the IC50 was > 47.1 µM (inactive). On to `C=CCn1c(SCC(=O)Nc2c(C)cccc2C)nnc1-c1ccncc1`, for which, in [1], the EC50 was > 53 µM (inactive). For the same compound, in series [2], the IC50 was > 47.1 µM (inactive). With `CCCS(=O)(=O)N1CCC(C(=O)NCCCOC(C)C)CC1`, the EC50 in [1] is > 53 µM (inactive). The IC50 in [2] was > 47.1 µM (inactive).

For `CC(C(=O)Nc1ccccc1C(F)(F)F)N1CCN(C)CC1` (centres undefined), the IC50 in series [5] was 163 µM (active). On to `CC(C)(O)C#Cc1ccc(C(=O)Nc2ccc3c(c2)OCO3)s1`, for which the IC50 in “cells” was 5 µM (active). Take `Cc1cnc(NC(=O)CN2CCN(c3ccccc3F)CC2)s1`: the IC50 in series [5] is 150 µM (active). On to `COc1ccc(-n2c(=O)c(-c3ccccc3)nc3cncnc32)cc1`, for which the AC50 on Cytochrome P450 3A4 was 15.8 µM (inconclusive); at Cytochrome P450 2D6 it was 25.1 µM (inconclusive); on Cytochrome P450 2C19 (read-out: AC50), 39.8 µM (inconclusive). As to `COC(=O)C1=C2SC(C)C(=O)N2C(N)=C(C#N)C1c1ccc(OC)c(OC)c1` (centres undefined), the EC50 in [3] and in series [4] was > 112 µM (not active) throughout. `CCOc1cc(N2CCOCC2)c(OCC)cc1NCC(=O)N1CCN(Cc2ccccc2)CC1`: the IC50 in series [5] is 64.2 µM (active). Consider `CN(C(=O)CCS(=O)(=O)c1ccc2c(c1)oc(=O)n2C)C1CCCCC1`, for which the EC50 in series [1] is > 53 µM (inactive). In addition, the IC50 in series [2] is > 47.1 µM (inactive). Take `O=C(CN1CCCCCC1)Nc1nc2ccccc2s1`: in [5], the IC50 is 173 µM (active). Regarding `COc1cccc(COC(=O)CCNC(=O)c2ccc(Cl)cc2)c1OC`, in the series “cells”, the IC50 is 25.5 µM (active). On to `COc1ccccc1N1CCN(C(=O)C(=O)c2cn(CC(=O)N3CCCC3)c3ccccc23)CC1`, for which the EC50 in series [1] was > 53 µM (inactive). The IC50 in [2] was > 47.1 µM (inactive). For the compound `CC(=O)c1ccc(NC(=O)C(C)OC(=O)c2ccc(Br)o2)cc1` (centres undefined), the EC50 in series [1] was > 53 µM (inactive). In addition, the IC50 in series [2] is > 47.1 µM (inactive). As to `CC(C)(C)OC(=O)N1CCCN(C(=O)Nc2cccc(Cl)c2)CC1`, the EC50 in [1] was > 53 µM (inactive). Moreover, the IC50 in series [2] is > 47.1 µM (inactive). Take `Cc1ccc(OCC(=O)Nc2ccc([N+](=O)[O-])cn2)cc1C`: in [1], the EC50 was > 53 µM (inactive). The IC50 in series [2] is > 47.1 µM (inactive). Turning to `CN(C)S(=O)(=O)c1ccc(Cl)c(NC(=O)CNC2(C)CCS(=O)(=O)C2)c1` (centres undefined), the EC50 in series [1] is > 53 µM (inactive). In addition, the IC50 in series [2] was > 47.1 µM (inactive). On to `C[C@@H]1CCCCO[C@@H](CN(C)CC2CCCCC2)[C@@H](C)CN([C@@H](C)CO)C(=O)c2cc(NC(=O)Nc3ccc(C(F)(F)F)cc3)ccc2O1`, for which the AC50 at Paired box protein Pax-8 is 12 µM (active). `C[C@@H]1CN([C@H](C)CO)C(=O)c2cc(NC(=O)c3ccccc3)ccc2O[C@@H](C)CCCCO[C@H]1CN(C)Cc1ccc(C(F)(F)F)cc1`: the AC50 at Paired box protein Pax-8 was 3.09 µM (active).

On to `CCN1CCN(CC(=O)N/N=C/c2cc(Br)cs2)CC1`, for which the IC50 in series [5] was 94.2 µM (active).

Turning to `CSc1nc(/C=C2\C=Nc3ccccc32)c(O)n1C`, the IC50 in [5] was 41 µM (active). Also, the EC50 was 0.812 µM (active) in [3] and 5.32 µM (active) in series [4]. Besides, in series [6], the AC50 was 4.03 µM (active). Consider `Cn1c(=O)c2c(nc(OCc3ccc(Cl)cc3Cl)n2Cc2ccc(F)cc2)n(C)c1=O`, for which the EC50 in series [3] and in [4] was > 112 µM (not active) throughout.

A word on the AC50: it is the concentration at which the activity in the assay is half-maximal.
